According to patent US20240228493A1, “LRRK2 INHIBITORS AND USES THEREOF” (NEURON23, ICN., priority 2022, published 2024):

How the values were obtained:
Caco-2 cells = experiment: Caco-2 bidirectional permeability; format: in vitro ADME; details: for Caco-2 ER: Efflux Ratio=Papp(BA)/Papp(AB); for Caco-2 A2B (10^−6 cm/s): apical to basolateral; for Caco-2 A2B (10^−6 cm/s) / Caco-2 B2A (10^−6 cm/s): 2 hours, pH 7.4; for Caco-2 B2A (10^−6 cm/s): basolateral to apical
Procedure: The compounds disclosed herein were tested in vitro on CaCo2 cell penetration according to the following procedures.
Caco-2 cells purchased from ATCC were seeded onto […] (PET) in 96-well Corning Insert plates at 1×10^5 cells/cm^2. The media were refreshed every 4 to 5 days until the 21st to 28th day for confluent cell monolayer formation.
Experiments were run in duplicate using a HBSS transport buffer containing 10 mM HEPES at pH 7.4. The test article TEST COMPOUND was tested bi-directionally at […] concentrations, the control compound digoxin was tested bi-directionally at 10 μM, and nadolol and metoprolol were tested at 2.0 μM in the A to B direction. Final DMSO concentrations were adjusted to less than 1%. The plates were incubated for 2 hours in a CO2 incubator at 37±1° C. with 5% CO2 at saturated humidity without shaking. Following incubation, samples were mixed with acetonitrile containing internal standard and centrifuged at 3200×g for 10 minutes. Then 200 μL of supernatant was taken from all samples. For TEST COMPOUND and digoxin, the supernatant was diluted with 200 μL of ultra-pure water and for nadolol and metoprolol, the supernatant was diluted with 600 μL of ultra-pure water. All samples were analyzed by LC-MS/MS. Concentrations of TEST COMPOUND and control compounds were determined in starting solutions, donor well solutions, and receiver well solutions using peak area ratios (PAR) of analyte to internal standard. After the transport assay, a lucifer yellow rejection assay was run to determine the Caco-2 cell monolayer integrity.
The apparent permeability (Papp), the % recovery and the efflux ratio were calculated as follows:
Papp=(dCr/dt)×Vr/(A×C0) 1.
Efflux Ratio=Papp(BA)/Papp(AB) 3. • Where: • dCr/dt is the slope of the cumulative concentration in the receiver compartment versus time (mM/s). • Vr and Vd is the volume in the receiver and donor compartments (0.075 mL on the apical side, 0.25 mL on the basolateral side), respectively. • A is the surface area of the cell monolayer (0.0804 cm^2). • C0 is the measured donor concentrations (μM) at the beginning of the experiment. • Cd and Cr are the final measured concentrations in the donor and receiver compartments, respectively.

[1] = biological target: T1, wt human LRRK2, catalytic site (Homo sapiens, UniProt Q5S007); experiment: TR-FRET LanthaScreen Tb Kinase Activity Assay, LRRK2 inhibition; format: biochemical; details: 2 nM wt human LRRK2, 400 nM peptide, 38 μM ATP
T1 construct: wt human LRRK2, catalytic site, catalytic site (ThermoFisher/USA); purchased ThermoFisher
Procedure: The compounds disclosed herein were tested for their inhibitory effect on LRRK2 kinase according to the following procedures.
The protocol for basic TR-FRET LanthaScreen Tb Kinase Activity Assay inhibitor studies were as follows. LanthaScreen Kinase Activity Assays (ThermoFisher/USA) to evaluate inhibitors were performed by addition of 100 nL of test compound in corresponding DMSO dilutions/5 μL of kinase/fluorescein-ERM (LRRKtide) peptide mixture, Compound & kinase were pre-incubated for 15 minutes, then 5 μl of ATP into 384 well small volume plates. After incubation for 120 minutes at room temperature, the detection reagents containing Tb-anti-pLRRKtide antibody were added to monitor phosphorylation level of peptide. Then, after 60 min minutes incubation at room temperature plates were read in Envision. Data analysis of emission ratios was according to LanthaScreen Tb Kinase Activity Assay protocol.
Kinase and assay components were adjusted to final concentrations according to the kit protocol. For LRRK2: 2 nM wt human LRRK2, catalytic site, catalytic site (ThermoFisher/USA), 400 nM peptide, 38 μM ATP in 1× Kinase Buffer A. […]
Kinase and assay components were adjusted to final concentrations according to the kit protocol.

human hepatocyte = experiment: Human hepatocyte stability, predicted hepatic clearance (h-Hept CL predict); format: in vitro ADME; details: human hepatocytes, 0.5×10^6 cells/mL, 1 μM, values without asterisk
Procedure: The compounds disclosed herein were tested in vitro on human hepatocyte for in vitro h-Hept CL predict according to the following procedures. • 1. Compound sock solutions were prepared by dissolving test compound and positive control in dimethyl sulfoxide (DMSO) at a concentration of 10 mM. Stock solutions were then diluted to 100 μM solutions by combining 198 μL of 50% acetonitrile/50% water with 2 μL of the 10 mM stock in separate conical tubes. • 2. Cryopreserved hepatocytes were prepared as follows: Incubation medium (William's E Medium supplemented with GlutaMAX) and hepatocyte thawing medium were placed in a 37° C. water bath and allowed to warm for at least 15 minutes prior to use. Cryopreserved hepatocytes were removed from storage, ensuring that vials remained at cryogenic temperatures until thawed. Cells were thawed by placing the vials in a 37° C. water bath and gently shaking the vials for 2 minutes. After thawing was completed, vials were sprayed with 70% ethanol and transferred to a biosafety cabinet. Hepatocytes were transferred into 50 mL conical tube containing thawing medium using wide-bore pipette tips. Tubes were placed into a centrifuge and spun at 100 g for 10 minutes. Then thawing medium was aspirated and hepatocytes were resuspended in enough incubation medium to yield ˜1.5×10^6 cells/mL. Cells were counted using acridine orange and propidium iodide (AO/PI) staining, and the viable cell density was determined. Cells were diluted with incubation medium to a working cell density of 0.5×10^6 viable cells/mL. • 3. To determine hepatocyte stability, 198 μL of hepatocytes were transferred into each well of a 96-well non-coated plate. Plates were placed in an incubator to allow the hepatocytes to warm for 10 minutes. • 4. The reaction was started by transferring 2 μL of the 100 μM test compound or positive control solution into respective wells of the 96-well non-coated plates. Plates were returned to the incubator until 25 μL aliquots of well contents were sampled at time points of 0, 15, 30, 60, 90 and 120 minutes. The aliquots were then mixed with 6 volumes (150 μL) of acetonitrile containing internal standard, IS (100 nM alprazolam, 200 nM caffeine and 100 nM tolbutamide) to terminate the reaction and vortexed for 5 minutes. After centrifuging the samples for 45 minutes at 3,220 g, aliquots of 100 μL of the supernatant were taken and diluted with 100 μL of ultra-pure water. The mixture was used for LC/MS/MS analysis. All incubations were performed in duplicate.
All calculations were carried out using Microsoft Excel. Peak area ratios (PAR) were determined from extracted ion chromatograms. The in vitro half-life (t1/2) of parent compound was determined by regression analysis of the percent parent disappearance vs. time curve as follows:
Conversion of the in vitro t1/2 (in minutes) into the in vitro intrinsic clearance (in vitro CLint, in μL/min/1×10^6 cells) was done using the following equation (mean of duplicate determinations): […]
The scaled-up intrinsic clearance (CLint, mL/min/kg), predicted hepatic clearance (CLH, mL/min/kg) and hepatic extraction ratio (ER) were calculated using the following equations:
CLint=(0.693/t1/2)*(1/(hepatocyte concentration (0.5*10^6 cells/mL)))*scaling factors (Table (A) Appendix Table 1)
CLHept-predict=(QH*Scaled-up CLint*fub)/(QH+Scaled-up CLint*fub)
ER=CLH/QH • Where: • V=incubation volume (0.2 mL) • N=number of hepatocytes per well (0.1*10^6 cells) • QH=hepatic blood flow (mL/min/kg) (Table (A) Appendix Table 1) • fub=fraction of unbound drug in plasma, assumed to be 1

T1 sequence (Q5S007 1879-2138 limits assumed): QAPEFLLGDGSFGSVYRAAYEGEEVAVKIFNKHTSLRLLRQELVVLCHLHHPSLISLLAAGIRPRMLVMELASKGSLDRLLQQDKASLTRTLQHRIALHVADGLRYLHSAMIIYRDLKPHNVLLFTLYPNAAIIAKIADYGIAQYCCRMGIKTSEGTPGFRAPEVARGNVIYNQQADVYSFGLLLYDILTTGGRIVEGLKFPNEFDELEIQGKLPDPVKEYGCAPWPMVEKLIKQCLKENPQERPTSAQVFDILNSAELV

SMILES | Caco-2 ER (Caco-2 cells) | Caco-2 A2B (10^−6 cm/s) (Caco-2 cells) | Caco-2 B2A (10^−6 cm/s) (Caco-2 cells) | IC50 [1] [nM] | hHep Cl (mL/min/kg) (human hepatocyte)
Cc1n[nH]c2c1N=C(c1c(F)cccc1F)Nc1cnc(-c3cn[nH]c3)cc1-2 [Example 29, 8-(2,6-difluorophenyl)-5-methyl-13-(1H-pyrazol-4-y1)-3,4,7,9,12-pentazatricyclo[8.4.0.02,6]tetradeca-1(10),2(6),4,7,11,13-hexaene] | L (L (Likely)”: ER≥2.5) | L (L (Low permeability)”: A2B (B2A)<1) | H (H (High permeability)”: A2B (B2A)>5) | < 1 | L (L (Low Cl)”: Hep Cl (mL/min/kg)<6.3)
Fc1cccc(F)c1C1=Nc2c(Cl)n[nH]c2-c2cc(-c3ccn(CC(F)F)n3)ncc2N1 [Example 30, (3-chloro-9-(1-(2,2-difluoroethyl)-1H-pyrazol-3-yl)-5-(2,6-difluorophenyl)-1,6-dihydropyrazolo[4,3-d]pyrido[4,3-f][1,3]diazepine)] | L (L (Likely)”: ER≥2.5) | M (M (Moderate permeability)”: 1≤A2B (B2A)≤5) | H (H (High permeability)”: A2B (B2A)>5) | < 1 | I (I (Intermediate Cl)”: 6.3≤Hep Cl (mL/min/kg)≤14.7)
COC1(C#Cc2cc3c(cn2)NC(c2c(F)cccc2F)=Nc2c(C)n[nH]c2-3)CCOCC1 [Example 31, 8-(2,6-difluorophenyl)-13-[2-(4-methoxytetrahydropyran-4-y1)ethynyl]-5-methyl-3,4,7,9,12-pentazatricyclo[8.4.0.02,6]tetradeca-1(10),2(6),4,7,11,13-hexaene] | L (L (Likely)”: ER≥2.5) | M (M (Moderate permeability)”: 1≤A2B (B2A)≤5) | H (H (High permeability)”: A2B (B2A)>5) | < 1 | I (I (Intermediate Cl)”: 6.3≤Hep Cl (mL/min/kg)≤14.7)
Cc1n[nH]c2c1N=C(c1c(F)cccc1F)Nc1c-2cc(N2CCC(O)CC2)nc1C [Example 40, 1-(5-(2,6-difluorophenyl)-3,7-dimethyl-1,6-dihydropyrazolo[4,3-d]pyrido[4,3-f][1,3]diazepin-9-yl)piperidin-4-ol] | L (L (Likely)”: ER≥2.5) | M (M (Moderate permeability)”: 1≤A2B (B2A)≤5) | H (H (High permeability)”: A2B (B2A)>5) | < 1 | I (I (Intermediate Cl)”: 6.3≤Hep Cl (mL/min/kg)≤14.7)
Cc1n[nH]c2c1N=C(c1c(F)cccc1F)Nc1c-2cc(N2CCN(S(C)(=O)=O)CC2)nc1C [Example 44, 5-(2,6-difluorophenyl)-3,7-dimethyl-9-(4-(methylsulfonyl)piperazin-1-yl)-1,6-dihydropyrazolo[4,3-d]pyrido[4,3-f][1,3]diazepine] | L (L (Likely)”: ER≥2.5) | L (L (Low permeability)”: A2B (B2A)<1) | H (H (High permeability)”: A2B (B2A)>5) | < 1 | L (L (Low Cl)”: Hep Cl (mL/min/kg)<6.3)
Cc1nc(N2CCC[C@@H](C#N)C2)cc2c1NC(c1c(F)cccc1F)=Nc1cn[nH]c1-2 [Example 47, (R)-1-(5-(2,6-difluorophenyl)-7-methyl-1,6-dihydropyrazolo[4,3-d]pyrido[4,3-f][1,3]diazepin-9-y1)piperidine-3-carbonitrile] | L (L (Likely)”: ER≥2.5) | M (M (Moderate permeability)”: 1≤A2B (B2A)≤5) | H (H (High permeability)”: A2B (B2A)>5) | < 1 | H (H (High Cl)”: Hep Cl (mL/min/kg)>14.7)
Cc1n[nH]c2c1N=C(c1c(F)cccc1F)Nc1cnc(N3CC[C@@H](C#N)C3)cc1-2 [Example 49, (R)-1-(5-(2,6-difluorophenyl)-3-methyl-1,6-dihydropyrazolo[4,3-d]pyrido[4,3-f][1,3]diazepin-9-y1)pyrrolidine-3-carbonitrile] | L (L (Likely)”: ER≥2.5) | M (M (Moderate permeability)”: 1≤A2B (B2A)≤5) | H (H (High permeability)”: A2B (B2A)>5) | 1 to 100 | I (I (Intermediate Cl)”: 6.3≤Hep Cl (mL/min/kg)≤14.7)
Cc1n[nH]c2c1N=C(c1c(F)ccc(CO)c1F)Nc1cnc(N3CCOCC3)cc1-2 [Example 50, (2,4-difluoro-3-(3-methyl-9-morpholino-1,6-dihydropyrazolo[4,3-d]pyrido[4,3-f][1,3]diazepin-5-yl)phenyl)methanol] | L (L (Likely)”: ER≥2.5) | L (L (Low permeability)”: A2B (B2A)<1) | H (H (High permeability)”: A2B (B2A)>5) | 1 to 100 | L (L (Low Cl)”: Hep Cl (mL/min/kg)<6.3)
